Patent US10835532B2, “Muscarinic agonists as cognitive enhancers” (The University of Toledo, priority 2008, dated 2020)
“Also recorded” adds a separate entry of the source.

Tests used:
Long Evans rats = experiment: Delayed spontaneous alternation in four-arm cross maze (working memory); format: in vivo, rat
Source text: Various neurodegenerative diseases and psychiatric disorders are marked by alterations in brain M1 muscarinic cholinergic receptor function and cognitive deficits including working memory and cognitive flexibility impairments. Alleviating such deficits in conditions such as Alzheimer's disease and schizophrenia has been limited due to a lack of agonists with M1 muscarinic receptor subtype specificity. CDD-102A is a functionally-selective M1 agonist with lower activity at other muscarinic receptor subtypes. The present experiment investigated the effects of systemic treatment with CDD-102A on working memory and/or attentional set-shifting in rats. All testing occurred in a four-arm cross maze. Delayed (30 sec) spontaneous alternation in Long Evans rats was used as a test for working memory. […] A shift between a place and visual cue discrimination was used as an attentional set-shifting test. In this set of experiments, rats received either vehicle or CDD-102A (0.003-0.1 mg/kg) 30 minutes prior to testing in a place-visual cue set-shifting task. To evaluate the effects of muscarinic agonists on memory function in normal animals, rats were tested on a delayed spontaneous alternation task in a modified T-maze. The task takes advantage of rats' natural tendency to alternate. Animals were placed in a 4-arm maze shaped like a “+”. If a rat chose four different arms in four consecutive choices it was scored as an alternation. A delay was inserted between arm choices to help assess memory function. In the delay version of the task, CDD-0102A (a functionally selective M1 agonist) improved memory function in a dose dependent manner (see FIG. 1). All testing was carried out in a four-arm cross-maze made of 0.6 cm thick black plastic was used for all behavioral testing. The maze was placed on a table that was 72 cm above the floor. Each arm was 55 cm long 10 cm wide. The height of the arm walls was 15.0 cm. […] The number and sequence of arm entries was recorded. An arm entry was recorded when all four paws entered an arm. […]

rats = experiment: Place-visual cue attentional set-shifting task (cognitive flexibility); format: in vivo, rat
Source text: Various neurodegenerative diseases and psychiatric disorders are marked by alterations in brain M1 muscarinic cholinergic receptor function and cognitive deficits including working memory and cognitive flexibility impairments. Alleviating such deficits in conditions such as Alzheimer's disease and schizophrenia has been limited due to a lack of agonists with M1 muscarinic receptor subtype specificity. CDD-102A is a functionally-selective M1 agonist with lower activity at other muscarinic receptor subtypes. The present experiment investigated the effects of systemic treatment with CDD-102A on working memory and/or attentional set-shifting in rats. All testing occurred in a four-arm cross maze. Delayed (30 sec) spontaneous alternation in Long Evans rats was used as a test for working memory. […] A shift between a place and visual cue discrimination was used as an attentional set-shifting test. In this set of experiments, rats received either vehicle or CDD-102A (0.003-0.1 mg/kg) 30 minutes prior to testing in a place-visual cue set-shifting task. A treatment was administered either prior to the acquisition phase or prior to the shift phase. […] To examine cognitive flexibility, animals were evaluated for their ability to learn a place-visual cue task. Local cues in the maze arms included a black board in one arm and white board in the other arm. The cues were switched between the choice arms randomly across trials so the same cue was not always in the same location. Rats first learned to use a place strategy—always enter the same arm to receive a cereal reinforcement. Criterion was set at 10 consecutive correct trials. No treatment was given to rats prior to learning the place strategy test. The results are shown with the two bars on the left side of the graph in FIG. 2, showing that learning of a place-visual cue task. CDD-0102A, at a dose of 0.03 mg/kg decreased the number of trials to criterion (10 consecutive correct choices). Vehicle (N=3), CDD-0102A (N=4). The following day, rats had to inhibit using a place strategy and learn a visual cue strategy. That is, a rat had to choose the arm that contained a particular color cue (e.g., black). The criterion again was set at 10 consecutive correct trials. Rats received either saline (N=3) or CDD-0102A at 0.03 or 0.1 mg/kg (N=4) 30 minutes prior to testing. The results are shown in the middle of FIG. 2. […] Similar studies evaluated the ability of animals to shift from learning a visual cue task to a place strategy. Again criterion was set at 10 consecutive correct trials. Rats received either saline (N=3) or CDD-0102A at 0.03 or 0.1 mg/kg (N=4) 30 minutes prior to testing. The results are shown in the middle of FIG. 3. […] All testing was carried out in a four-arm cross-maze made of 0.6 cm thick black plastic was used for all behavioral testing. The maze was placed on a table that was 72 cm above the floor. Each arm was 55 cm long 10 cm wide. The height of the arm walls was 15.0 cm. Each arm contained a food well (3.2 cm diameter×1.6 cm high) that was 3 cm away from the end wall. Each food-well hole was 2.3 cm in diameter and 1.6 cm deep.

rat = experiment: Salivation following i.p. injections in the rat; format: in vivo
Source text: FIG. 6 presents a graph comparing the effects of CDD-0102A on memory function and salivation following i.p. injections in the rat.

Alzheimer's subjects = settings: cited from earlier work
[1] = rats, 0.03 or 0.1 mg/kg 30 minutes prior to testing, compared to controls, hydrochloride
[2] = shift from place cue task to visual cue task, 0.03 and 0.1 mg/kg
[3] = shift from visual cue task to place cue task, 0.03 and 0.1 mg/kg

SMILES: CCc1noc(C2CN=CNC2)n1.Cl (stereo not drawn) [CDD-0102A, 5-(3-ethyl-1,2,4-oxadiazol-5-yl)-1,4,5,6-tetrahydropyrimidine hydrochloride]
- Memory function in the delay version of the spontaneous alternation task (Long Evans rats; normal rats, i.p., dose dependent (FIG. 1)): improved
- Delayed spontaneous alternation performance (Long Evans rats; rats, 0.1, 0.3 and 1 mg/kg i.p. 30 minutes before testing, 30 sec delay, listed as CDD-102A, hydrochloride): significantly enhanced
- Number of arm entries (locomotor activity) (Long Evans rats; rats, all the doses tested, i.p.): did not alter
- Acquisition of a place or visual cue discrimination (rats; rats, 0.003-0.1 mg/kg 30 minutes prior to the acquisition phase): did not affect
- Shift between a place and visual cue discrimination (rats; rats, 0.03 and 0.1 mg/kg, 30 minutes prior to the shift phase): significantly enhanced
- Trials to criterion (10 consecutive correct choices), shift from place cue task to visual cue task (rats; [1]): about half the trials; also recorded: decreased
- Trials to criterion (10 consecutive correct choices), shift from visual cue task to place cue task (rats; [1]): decreased; also recorded: about half the trials
- Ability to initially inhibit a previously relevant strategy and maintain a new, relevant strategy once selected (rats; rats, shift to the place or to the visual cue strategy): significantly increased
- Number of never-reinforced errors (rats; [2]): decreased
- Number of perseverative errors (rats; [2]): decreased
- Number of regressive errors (rats; [2]): decreased
- Number of never-reinforced errors (rats; [3]): no significant impact
- Number of perseverative errors (rats; [3]): decreased
- Number of regressive errors (rats; [3]): decreased
- Lowest dose producing salivation (rat): 0.3 mg/kg
- Separation between the dose enhancing place-visual cue learning (0.03 mg/kg i.p.) and the lowest dose producing salivation (rat): ten-fold lower

SMILES: CCCCCCOc1nsnc1C1=CCCN(C)C1 [xanomeline]
- Side effects associated with activation of M3 receptors (salivation, diarrhea and profuse sweating) (Alzheimer's subjects; Alzheimer's subjects, limited subject compliance): produced unwanted side effects
- Psychiatric symptoms such as hallucinations (Alzheimer's subjects; phase II clinical trials in Alzheimer's subjects): significantly improved
